Broadly, the GI50 is the concentration at which growth is held to half of that of the control.

Type in all cases: cell-based
Assay [1] relates to CAKI-1 renal cancer cell lines. The experiment in a line: In vitro tumor cell growth inhibition (cytotoxicity assay), renal cancer cell line. The conditions noted are these: CAKI-1 renal cancer cells. The method, then: (§1) Cytotoxicity may be measured using a standard methodology for adherent cell lines such as the microculture tetrazolium assay (MTT). Details of this assay have been published (Alley, M C et al, Cancer Research 48:589-601, 1988). Exponentially growing cultures of tumor cells such as the HT-29 colon carcinoma or LX-1 lung tumor can be used to make microtiter plate cultures. Cells can be seeded at 5000-20,000 cells per well in 96-well plates (in 150 μl of media), and grown overnight at 37° C. Test compounds are added, in 10-fold dilutions varying from 10^−4 M to 10^−10 M.
(§2) Cells are then incubated for 48-72 hours. To determine the number of viable cells in each well, the MTT dye is added (50 μl of 3 mg/ml solution of 3-(4,5-dimethylthiazol-2-yl)-2,5-diphenyltetrazolium bromide in saline). This mixture is incubated at 37° C. for 5 hours, and then 50 μl of 25% SDS, pH 2 is added to each well. After an overnight incubation, the absorbance of each well at 550 mn is read using an ELISA reader. The values for the mean+/−SD of data from quadruplicate wells are calculated, using standard formula as for the %T/C (%viable cells treated/control). Additional methods as described by Inhibition of the growth of tumor cells was determined as described by Patil, S. D., et al J. Med. Chem., 32, 1284 (1989) may be used as well.
(§3) The concentration of test compound which gives a T/C of 50% growth inhibition is designated as the IC50.
(§4) Typically, the cells are grown in RPMI 1640 medium supplemented with 10 nM calcium leucovorin instead of folic acid as the folate source, 10% dialyzed fetal calf serum, penicillin and streptomycin. Additional ingredients may be added depending on the particular needs of the cells being cultured. […]
(§5) Cells are seeded into 96-well plates using a pipeting mechanism such as Perkin-Elmer Pro/pette. […] Inhibition of cell growth may be measured using the MTT dye reduction assay as described above.

Assay [2] concerns OVCAR-4 ovarian carcinoma cell lines. Nature of the assay: In vitro tumor cell growth inhibition (cytotoxicity assay), ovarian carcinoma cell line. The conditions noted are these: OVCAR-4 ovarian carcinoma cells. The method, then:
as §1, §2, §3, §4, §5

Assay [3] concerns KM12 colon cancer cell lines. The experiment in a line: In vitro tumor cell growth inhibition (cytotoxicity assay), colon cancer cell line. To be noted: KM12 colon cancer cells. As for the experimental part: as §1, §2, §3, §4, §5
For assay [4], the system named is MDA-MB-435 cells. Nature of the assay: In vitro tumor cell growth inhibition (cytotoxicity assay), breast cancer cell line. The conditions noted are these: MDA-MB-435 breast cancer cells. The method, then:
as §1, §2, §3, §4, §5

The mark [5] stands for this setting: Homo sapiens, read-out: LC50 (the source's name).

As to `Cl.OCC1OC(NCCNCCNC2OC(CO)C(O)C(O)C2O)C(O)C(O)C1O` [Compound 1, 1,3-N,N-di-β-D-glucopyranosyl-diethylenetriamine], the TGI result in assay [1] is given as “about 10 μM”; in assay [2], “about 3.5 μM”; in assay [3], “about 22 μM”. Further, the GI50 in assay [1] (Homo sapiens) is 3.1 µM; in assay [2] (Homo sapiens), 1.63 µM; in assay [3] (Homo sapiens), approximately 10 µM; in assay [4] (Homo sapiens, read-out: GI50 (inhibited growth by 50%)), 1.72 µM. The CC50 was 30 µM in assay [1] (setting [5]), approximately 7.7 µM in assay [2] (setting [5]) and approximately 48 µM in assay [3] (setting [5]). In assay [4] (Homo sapiens, read-out: LC50 (lethal concentration to kill 50% of the cells)), the LC50 was approximately 6 µM. In addition, the “Total growth inhibition (TGI)” value in assay [4] came to 3.23 µM.
